In patent US10131652B2, “Pyrimidinyloxy benzene derivatives as herbicides” (E. I. DU PONT DE NEMOURS AND COMPANY, priority 2014, dated 2018):
Like-named read-outs stand apart in the source and are kept apart here.

Key:
Assay type in all cases: in vivo
[1] = test system: barnyardgrass (Echinochloa crus-galli); test: Test B pre-/postemergence plant response; settings: for pest or weed control at 125 g/ha / pest or weed control at 500 g/ha: Echinochloa crus-galli, 240 h, read-out: Plant response rating, Barnyardgrass; for pest or weed control at 500 g/ha: 500 g ai/ha
Summary of the method: (§1)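 Evaluation is visual, about 10 days after application, rating injury from 0 (none) to 100 (complete control) relative to untreated controls. Application was a preemergence soil spray on seeded pots or a postemergence spray on one- to two-leaf plants.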

corn (Zea mays) = test: Test B pre-/postemergence plant response; settings: for Corn plant response rating (crop injury, 0 = no effect, 100 = complete kill) at 125 g/ha / Corn plant response rating (crop injury, 0 = no effect, 100 = complete kill) at 500 g/ha: Zea mays, 240 h; for Corn plant response rating (crop injury, 0 = no effect, 100 = complete kill) at 500 g/ha: 500 g ai/ha
Summary of the method: as §1

[2] = test system: giant foxtail (Setaria faberii); test: Test B pre-/postemergence plant response; settings: for pest or weed control at 125 g/ha / pest or weed control at 500 g/ha: Setaria faberi, 240 h, read-out: Plant response rating, Foxtail, Giant; for pest or weed control at 500 g/ha: 500 g ai/ha
Summary of the method: as §1

[3] = test system: pigweed (Amaranthus retroflexus); test: Test B pre-/postemergence plant response; settings: for pest or weed control at 125 g/ha / pest or weed control at 500 g/ha: Amaranthus retroflexus, 240 h, read-out: Plant response rating, Pigweed; for pest or weed control at 500 g/ha: 500 g ai/ha
Summary of the method: as §1

[4] = test system: wheat (Triticum aestivum); test: Test B pre-/postemergence plant response; settings: for plant injury at 125 g/ha / plant injury at 500 g/ha: Triticum aestivum, 240 h, read-out: Plant response rating, Wheat; for plant injury at 500 g/ha: 500 g ai/ha
Summary of the method: as §1

[5] = test system: barnyardgrass (Echinochloa crus-galli); test: Test C flooded paddy test plant response; settings: Echinochloa crus-galli; Flood, 250 g ai/ha; scale of 0 to 100 where 0 is no effect and 100 is complete control; 13 to 15 days; read-out: Barnyardgrass plant response rating
Summary of the method: (§2)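 2-leaf plants; flood 3 cm, cpd into paddy water; greenhouse 13–15 d; visual score vs untreated, 0 = no effect, 100 = complete control; dash = no result.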

[6] = test system: ducksalad (Heteranthera limosa); test: Test C flooded paddy test plant response; settings: Heteranthera limosa; Flood, 250 g ai/ha; scale of 0 to 100 where 0 is no effect and 100 is complete control; 13 to 15 days; read-out: Ducksalad plant response rating
Summary of the method: as §2

rice (Oryza sativa) = test: Test C flooded paddy test plant response; settings: Oryza sativa; Flood, 250 g ai/ha; scale of 0 to 100 where 0 is no effect and 100 is complete control; 13 to 15 days; read-out: Rice plant response rating
Summary of the method: as §2

[7] = test system: small-flower umbrella sedge (Cyperus difformis); test: Test C flooded paddy test plant response; settings: Cyperus difformis; Flood, 250 g ai/ha; scale of 0 to 100 where 0 is no effect and 100 is complete control; 13 to 15 days; read-out: Sedge, Umbrella plant response rating
Summary of the method: as §2

[8] = test system: chickweed (common chickweed, Stellaria media); test: Test D postemergence plant response; settings: for pest or weed control at 31 g/ha: 31 g ai/ha; for pest or weed control at 62 g/ha: 62 g ai/ha; for pest or weed control at 62 g/ha / pest or weed control at 125 g/ha: scale 0 to 100, 0 no effect, 100 complete control, read-out: Plant response rating, Chickweed; for pest or weed control at 125 g/ha: 125 g ai/ha
Description: (§3) At the same time, plants selected from these crop and weed species and also kochia (Kochia scoparia), wild oat (Avena fatua), and chickweed (common chickweed, Stellaria media) were planted in pots containing Redi-Earth® planting medium (Scotts Company, 14111 Scottslawn Road, Marysville, Ohio 43041) comprising spaghnum peat moss, vermiculite, wetting agent and starter nutrients and treated with postemergence applications of test chemicals formulated in the same manner. Plants ranged in height from 2 to 18 cm (1- to 4-leaf stage) for postemergence treatments. Treated plants and controls were maintained in a greenhouse for 13 to 15 days, after which time all species were compared to controls and visually evaluated. Plant response ratings, summarized in Table D, are based on a scale of 0 to 100 where 0 is no effect and 100 is complete control. A dash (-) response means no test result.

kochia (Kochia scoparia) = test: Test D postemergence plant response; settings: for pest or weed control at 31 g/ha: 31 g ai/ha; for pest or weed control at 62 g/ha: 62 g ai/ha; for pest or weed control at 62 g/ha / pest or weed control at 125 g/ha: scale 0 to 100, 0 no effect, 100 complete control, read-out: Plant response rating, Kochia; for pest or weed control at 125 g/ha: 125 g ai/ha
Description: as §3

wild oat (Avena fatua) = test: Test D postemergence plant response; settings: for pest or weed control at 31 g/ha: 31 g ai/ha; for pest or weed control at 62 g/ha: 62 g ai/ha; for pest or weed control at 62 g/ha / pest or weed control at 125 g/ha: scale 0 to 100, 0 no effect, 100 complete control; for pest or weed control at 125 g/ha: 125 g ai/ha
Description: as §3

[9] = post-emergence, 125 g ai/ha, postemergence, 0 to 100 scale, 0 no effect, 100 complete control
[10] = post-emergence, Postemergence, 0 to 100 scale (0 no effect, 100 complete control)
[11] = pre-emergence, Preemergence, 125 g ai/ha, 0 to 100 scale where 0 is no effect and 100 is complete control
[12] = pre-emergence, Preemergence, 0 to 100 scale where 0 is no effect and 100 is complete control
[13] = Stellaria media, post-emergence, scale 0 to 100 (0 no effect, 100 complete control), read-out: Chickweed plant response rating
[14] = Stellaria media, post-emergence
[15] = Bassia scoparia, post-emergence, scale 0 to 100 (0 no effect, 100 complete control), read-out: Kochia plant response rating
[16] = Bassia scoparia, post-emergence
[17] = Avena fatua, post-emergence, scale 0 to 100 (0 no effect, 100 complete control), read-out: Oat, Wild plant response rating
[18] = Avena fatua, post-emergence, read-out: Plant response rating, Oat, Wild
[19] = post-emergence, postemergence, 0 to 100 scale, 0 no effect, 100 complete control
[20] = Preemergence, 125 g ai/ha, 0 to 100 scale (0 no effect, 100 complete control)

Compound	pest or weed control at 125 g/ha [1, 9] [%]	pest or weed control at 500 g/ha [1, 12] [%]	Corn plant response rating (crop injury, 0 = no effect, 100 = complete kill) at 125 g/ha (corn (Zea mays); [9]) [%]	Corn plant response rating (crop injury, 0 = no effect, 100 = complete kill) at 500 g/ha (corn (Zea mays); [12]) [%]	pest or weed control at 125 g/ha [2, 9] [%]	pest or weed control at 500 g/ha [2, 12] [%]	pest or weed control at 125 g/ha [3, 9] [%]	pest or weed control at 500 g/ha [3, 12] [%]	plant injury at 125 g/ha [4, 9] [%]	plant injury at 500 g/ha [4, 12] [%]	pest or weed control at 250 g/ha [5] [%]	pest or weed control at 250 g/ha [6] [%]	plant injury at 250 g/ha (rice (Oryza sativa)) [%]	pest or weed control at 250 g/ha [7] [%]	pest or weed control at 31 g/ha [8, 13] [%]	pest or weed control at 62 g/ha [8, 14] [%]	pest or weed control at 125 g/ha [8, 14] [%]	pest or weed control at 31 g/ha (kochia (Kochia scoparia); [15]) [%]	pest or weed control at 62 g/ha (kochia (Kochia scoparia); [16]) [%]	pest or weed control at 125 g/ha (kochia (Kochia scoparia); [16]) [%]	other results
FC(F)(F)c1cc(-c2ccccc2Oc2ncc(Cl)cn2)on1 [Compound 63, 5-chloro-2-[2-[3-(trifluoromethyl)-5-isoxazolyl]phenoxy]pyrimidine]	80	100	20	30	70	100	100	100	0	40	60	100	25	85	65	98	100	95	98	100	pest or weed control at 500 g/ha [1, 10]: 100%; pest or weed control at 125 g/ha [1, 11]: 90%; Corn plant response rating (crop injury, 0 = no effect, 100 = complete kill) at 500 g/ha (corn (Zea mays); [10]): 20%; Corn plant response rating (crop injury, 0 = no effect, 100 = complete kill) at 125 g/ha (corn (Zea mays); [11]): 10%; pest or weed control at 500 g/ha [2, 10]: 80%; pest or weed control at 125 g/ha [2, 11]: 100%; pest or weed control at 500 g/ha [3, 10]: 100%; pest or weed control at 125 g/ha [3, 11]: 100%; plant injury at 500 g/ha [4, 10]: 50%; plant injury at 125 g/ha [4, 11]: 20%; pest or weed control at 16 g/ha ([8]; Stellaria media, post-emergence, 16 g ai/ha, scale 0 to 100 (0 no effect, 100 complete control), read-out: Chickweed plant response rating): 60%; pest or weed control at 16 g/ha (kochia (Kochia scoparia); Bassia scoparia, post-emergence, 16 g ai/ha, scale 0 to 100 (0 no effect, 100 complete control), read-out: Kochia plant response rating): 90%; pest or weed control at 16 g/ha (wild oat (Avena fatua); Avena fatua, post-emergence, 16 g ai/ha, scale 0 to 100 (0 no effect, 100 complete control), read-out: Oat, Wild plant response rating): 0%; pest or weed control at 31 g/ha (wild oat (Avena fatua); [17]): 20%; pest or weed control at 62 g/ha (wild oat (Avena fatua); [18]): 25%; pest or weed control at 125 g/ha (wild oat (Avena fatua); [18]): 35%
FC(F)(F)c1cc(-c2ccccc2Oc2ncc(Cl)cn2)no1 [Compound 200, 5-chloro-2-[2-[5-(trifluoromethyl)-3-isoxazolyl]phenoxy]pyrimidine]	90	100	50	100	100	100	100	100	60	90	90	100	35	100	95	100	100	100	100	100	pest or weed control at 500 g/ha [1, 19]: 100%; Barnyardgrass plant response rating [1, 20]: 100; Corn plant response rating (corn (Zea mays); [20]): 20; Corn plant response rating (crop injury, 0 = no effect, 100 = complete kill) at 500 g/ha (corn (Zea mays); [19]): 90%; Foxtail, Giant plant response rating [2, 20]: 100; pest or weed control at 500 g/ha [2, 19]: 100%; pest or weed control at 500 g/ha [3, 19]: 100%; Pigweed plant response rating [3, 20]: 100; Wheat plant response rating [4, 20]: 20; plant injury at 500 g/ha [4, 19]: 100%; Plant response rating (scale 0 to 100), Chickweed ([8]; 16 g ai/ha): 60; Plant response rating (scale 0 to 100), Kochia (kochia (Kochia scoparia); 16 g ai/ha): 95; Plant response rating (scale 0 to 100), Oat, Wild (wild oat (Avena fatua); 16 g ai/ha): 20; pest or weed control at 31 g/ha (wild oat (Avena fatua); [17]): 30%; pest or weed control at 62 g/ha (wild oat (Avena fatua); Avena fatua, post-emergence, read-out: Oat, Wild plant response rating): 30%; pest or weed control at 125 g/ha (wild oat (Avena fatua); [18]): 55%
